Patent publication EP0004261A2, “Imidazole derivatives, method for their preparation and pharmaceutical compositions containing them” (F. HOFFMANN-LA ROCHE & CO. Aktiengesellschaft, priority 1978, dated 1979)

Tested on: Bastardhunde
Assay: Coronary-dilating / haemodynamic effect in anaesthetised open-chest dogs (electromagnetic flowmeter, aortic catheter, tachograph)
Conditions: Dosis i.v. 1 mg/kg in Propylenglykol, n = 3
[1] = maximal effect in percent of baseline

In the case of “2-Aethyl-N^5(oder N^4)-nitro-1-(2,3,5-tri-O-nitro-ß-D-ribofuranosyl)imidazol-4,5-dicarboxamid [mit R1 = CH3; R2 = H]”, the “BP [min] (arterieller Blutdruck, Wirkungsdauer)” value (duration of effect) is reported as >60 min, the “CABF [min] (Coronarfluss, Wirkungsdauer)” value (duration of effect) is reported as >60 min and the “HR [min] (Herzfrequenz, Wirkungsdauer)” value (duration of effect) is reported as >60 min. For the same substance, the “PL [min] (Druckgradient, Wirkungsdauer)” value (duration of effect) was 60 min, the “BP Δ % (arterieller Blutdruck)” value [1] was -32% and the “CABF Δ % (Coronarfluss)” value [1] was -19%. The “HR Δ % (Herzfrequenz)” value [1] was -6% and the “PL Δ % (Druckgradient, Aortadruck minus peripherem Coronardruck)” value [1] was -24%.
